Values of other authors in patent US8993576B2, “6-(1H-indol-4-yl)-4-(5-{[4-1-methylethyl)-1-piperazinyl]methyl}-1,3-oxazol-2-yl)-1H-indazole hemi succinate salt, polymorphs and pharmaceutical compositions thereof” (Glaxo Group Limited, priority 2010, dated 2015).
Like-named read-outs stand apart in the source and are kept apart here.

Experiments:
neutrophils [1] = tested on: neutrophils
CK2 protein kinase = CK2 protein kinase (Homo sapiens, UniProt P68400); conditions: read-out: IC50 on CK2 protein kinase
Sequence of CK2 protein kinase (P68400 whole entry): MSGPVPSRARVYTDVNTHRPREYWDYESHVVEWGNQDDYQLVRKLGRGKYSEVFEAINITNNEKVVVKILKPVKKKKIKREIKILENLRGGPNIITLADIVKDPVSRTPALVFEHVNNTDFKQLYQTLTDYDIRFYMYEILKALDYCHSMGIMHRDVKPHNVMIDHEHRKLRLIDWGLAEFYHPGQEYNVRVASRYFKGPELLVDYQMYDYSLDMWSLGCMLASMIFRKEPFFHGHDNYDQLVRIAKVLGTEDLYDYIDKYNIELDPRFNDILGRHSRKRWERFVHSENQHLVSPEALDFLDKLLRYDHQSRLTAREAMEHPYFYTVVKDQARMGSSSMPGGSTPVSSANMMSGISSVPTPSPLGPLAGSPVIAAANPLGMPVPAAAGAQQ

neutrophils [2] = tested on: neutrophils; remark: listed apart in the source
neutrophils [3] = conditions: treatment of neutrophils; Thelen et al. 1994

| Compound | effect on superoxide release (neutrophils [1]) | inhibitory activity on phospholipases (phospholipases) | IC50 (CK2 protein kinase) [µM] | IC50 (Class I PI3-kinases; each of the Class I PI3-kinases, Fruman et al. 1998, read-out: IC50 values against each of these PI3-kinases) [µM] | effect on neutrophil migration (neutrophils [2]) | effect on fMLP-induced respiratory burst response (neutrophils [3]) | IC50 (Class I PI3-kinases; each of the four Class I PI3-kinases, read-out: IC50 values against each of the various Class I PI3-kinases) [µM] |
| --- | --- | --- | --- | --- | --- | --- | --- |
| O=c1cc(N2CCOCC2)oc2c(-c3ccccc3)cccc12 [LY294002] | block | some inhibitory activity | 5 to 10 | 15 to 20 | block |  |  |
| COC[C@H]1OC(=O)c2coc3c2[C@@]1(C)C1=C(C3=O)[C@@H]2CCC(=O)[C@@]2(C)C[C@H]1OC(C)=O [wortmannin] | block |  |  |  | block | prevents | 0.001 to 0.01 |
